The record followed here is patent publication US7501415B2, “Selective inhibitors of ERK protein kinase and uses thereof” (Vertex Pharmaceuticals Incorporated, priority 2004, dated 2009).

pKi: −log10 of the molar value.

Broadly, the pKi is −log10 of the Ki, conventionally taken in molar units.

This assay has as its target activated ERK2 (Homo sapiens, UniProt P28482). The assay is described as follows: ERK2 inhibition assay, spectrophotometric coupled-enzyme assay. Format: biochemical. Conditions: activated ERK2 10 nM, 65 μM ATP, 200 μM erktide peptide, 30° C., pH 7.5. On the procedure:
In this assay, a fixed concentration of activated ERK2 (10 nM) was incubated with various concentrations of a compound of the present invention in DMSO (2.5%) for 10 min. at 30° C. in 0.1 M HEPES buffer (pH 7.5), containing 10 mM MgCl2, 2.5 mM phosphoenolpyruvate, 200 μM NADH, 150 μg/ml pyruvate kinase, 50 μg/ml lactate dehydrogenase, and 200 μM erktide peptide.

Chain of activated ERK2 (P28482 whole entry): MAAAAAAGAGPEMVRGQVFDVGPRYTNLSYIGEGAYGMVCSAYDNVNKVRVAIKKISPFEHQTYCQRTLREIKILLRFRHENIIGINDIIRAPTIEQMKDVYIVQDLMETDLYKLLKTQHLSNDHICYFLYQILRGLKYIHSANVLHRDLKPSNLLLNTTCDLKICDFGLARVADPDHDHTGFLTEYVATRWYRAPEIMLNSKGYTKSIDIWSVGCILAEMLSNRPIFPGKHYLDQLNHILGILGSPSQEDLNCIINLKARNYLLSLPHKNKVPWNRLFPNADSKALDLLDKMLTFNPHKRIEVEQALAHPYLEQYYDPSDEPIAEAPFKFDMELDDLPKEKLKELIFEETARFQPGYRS

Consider `Cc1cnc(Nc2c(C)cccc2Cl)nc1-c1c[nH]c(C(=O)NC(CO)c2ccccc2)c1` (centres unmarked) [Compound I-9], for which the pKi is less than 7.00. The value for `Cc1cnc(Nc2ccc([N+](=O)[O-])cc2Cl)nc1-c1c[nH]c(C(=O)NC(CO)c2ccccc2)c1` (centres unmarked) [Compound I-4] was more than 7.00; that for `Cc1cnc(Nc2ccc(Cl)cc2Cl)nc1-c1c[nH]c(C(=O)NC(CO)c2ccccc2)c1` (centres unmarked) [Compound I-3] was more than 7.00.

`Cc1cnc(Nc2ccccc2Cl)nc1-c1c[nH]c(C(=O)NC(CO)c2cccc(C(F)(F)F)c2)c1` (centres unmarked) [Compound I-11]: the negative logarithm of the Ki (pKi) was more than 7.00. The value for `Cc1cnc(Nc2cccc(Cl)c2Cl)nc1-c1c[nH]c(C(=O)NC(CO)c2ccccc2)c1` (centres unmarked) [Compound I-6] was more than 7.00. The value for `Cc1cccc(C(CO)NC(=O)c2cc(-c3nc(Nc4ccccc4Cl)ncc3C)c[nH]2)c1` (centres unmarked) [Compound I-10] was more than 7.00; that for `Cc1cnc(Nc2c(Cl)cccc2Cl)nc1-c1c[nH]c(C(=O)NC(CO)c2ccccc2)c1` (centres unmarked) [Compound I-8] was less than 7.00. Then `Cc1cnc(Nc2c(F)cccc2Cl)nc1-c1c[nH]c(C(=O)NC(CO)c2ccccc2)c1` (centres unmarked) [Compound I-12], with more than 7.00.
